Measurements reported in US9765092B2, “Tricyclic piperidine compounds” (ACTELION PHARMACEUTICALS LTD, priority 2013, dated 2017).
pIC50: −log10 of the molar value. Where two headings read alike, the source gives them in different places.

Molecular target: human TPH1 (Homo sapiens (Human), UniProt P17752)
Assay: Biochemical in vitro assay using fluorescence readout (TPH1 inhibition)
[1] = human TPH1, fluorescence readout
[2] = full length human TPH1, 40 μM L-tryptophan, 15° C., 60 minutes, fluorescence at 540 nm, mean if determined several times

human TPH1, sequence (P17752 whole entry): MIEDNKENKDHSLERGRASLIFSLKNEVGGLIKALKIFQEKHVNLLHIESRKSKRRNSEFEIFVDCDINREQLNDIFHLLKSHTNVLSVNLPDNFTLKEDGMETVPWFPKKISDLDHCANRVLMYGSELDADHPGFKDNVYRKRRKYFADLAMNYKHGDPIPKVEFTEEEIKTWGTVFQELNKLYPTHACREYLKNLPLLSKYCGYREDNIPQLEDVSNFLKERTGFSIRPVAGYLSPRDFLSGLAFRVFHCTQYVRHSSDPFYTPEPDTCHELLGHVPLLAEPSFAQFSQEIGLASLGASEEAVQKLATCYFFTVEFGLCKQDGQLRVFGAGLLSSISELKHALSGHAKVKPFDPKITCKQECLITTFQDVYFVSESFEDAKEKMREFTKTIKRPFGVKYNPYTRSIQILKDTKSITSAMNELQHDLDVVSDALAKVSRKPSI

SMILES	pIC50 [1]	also measured
CCc1nc(C)ccc1OCC(=O)N1CCc2nc3sccn3c2C1c1c(C)nn(C)c1C (stereo not shown) [Example 6.15.1, ((2-ethyl-6-methylpyridin-3-yl)oxy)-1-(5-(1,3,5-trimethyl-1H-pyrazol-4-yl)-7,8-dihydrothiazolo-[2′,3′:2,3]imidazo[4,5-c]pyridin-6(5H)-yl)ethanone]	6.83	–
CNC(=O)c1cc(F)c(C2c3c(nc4sc(C)nn34)CCN2C(=O)COc2ccc(C#N)cc2Cl)s1 (stereo not shown) [Example 1.25.8, 5-(6-(2-(2-chloro-4-cyanophenoxy)acetyl)-2-methyl-5,6,7,8-tetrahydro-[1,3,4]thiadiazolo[2′,3′:2,3]imidazo[4,5-c]pyridin-5-yl)-4-fluoro-N-methylthiophene-2-carboxamide]	7.37	–
COc1ccc2c(OCC(=O)N3CCc4nc5sc(C)nn5c4C3c3ccc(Cl)cc3F)cc(C)nc2c1 (stereo not shown) [Example 1.4.63, 1-(5-(4-chloro-2-fluorophenyl)-2-methyl-7,8-dihydro-[1,3,4]thiadiazolo[2′,3′:2,3]imidazo[4,5-c]pyridin-6(5H)-yl)-2-((7-methoxy-2-methylquinolin-4-yl)oxy)ethan-1-one]	7.19	–
Cc1nn2c3c(nc2s1)CCN(C(=O)COc1ccc(NS(C)(=O)=O)nc1Cl)C3c1sccc1F (stereo not shown) [Example 1.23.4, N-(6-chloro-5-(2-(5-(3-fluorothiophen-2-yl)-2-methyl-7,8-dihydro-[1,3,4]thiadiazolo[2′,3′:2,3]imidazo[4,5-c]pyridin-6(5H)-yl)-2-oxoethoxy)pyridin-2-yl)methanesulfonamide]	8.15	–
Cc1nn2c3c(nc2s1)CCN(C(=O)COc1ccc(C(F)(F)F)nc1Cl)C3c1sc(C(=O)N(C)C)cc1F (stereo not shown) [Example 1.24.2, 5-(6-(2-((2-chloro-6-(trifluoromethyl)pyridin-3-yl)oxy)acetyl)-2-methyl-5,6,7,8-tetrahydro-[1,3,4]thiadiazolo [2′,3′:2,3]imidazo[4,5-c]pyridin-5-yl)-4-fluoro-N,N-dimethylthiophene-2-carboxamide]	7.66	–
CCc1nc(N2CCCS2(=O)=O)ccc1OCC(=O)N1CCc2nc3sc(C(F)(F)F)nn3c2C1c1ccc(Cl)cc1F (stereo not shown) [Example 5.1.3, 1-(5-(4-chloro-2-fluorophenyl)-2-(trifluoromethyl)-7,8-dihydro-[1,3,4]thiadiazolo[2′,3′:2,3]imidazo[4,5-c]pyridin-6(5H)-yl)-2-((6-(1,1-dioxidoisothiazolidin-2-yl)-2-ethylpyridin-3-yl)oxy)ethanone]	–	pIC50: 8.00
Cc1nn2c3c(nc2s1)CCN(C(=O)COc1ccc(N(C)C)nc1Cl)C3c1ccc(Cl)nc1F (stereo not shown) [Example 1.16.1, 1-(5-(6-chloro-2-fluoropyridin-3-yl)-2-methyl-7,8-dihydro-[1,3,4]thiadiazolo[2′,3′:2,3]imidazo[4,5-c]pyridin-6(5H)-yl)-2-((2-chloro-6-(dimethylamino)pyridin-3-yl)oxy)ethanone]	8.30	–
CNC(=O)c1cc(F)c(C2c3c(nc4sc(C)nn34)CCN2C(=O)COc2ccc(N3CCOCC3)nc2Cl)s1 (stereo not shown) [Example 1.25.1, 5-(6-(2-((2-chloro-6-morpholinopyridin-3-yl)oxy)acetyl)-2-methyl-5,6,7,8-tetrahydro-[1,3,4]thiadiazolo[2′,3′:2,3]imidazo[4,5-c]pyridin-5-yl)-4-fluoro-N-methylthiophene-2-carboxamide]	8.30	–
CCc1nc(C)ccc1OC1(C(=O)N2CCc3nc4sc(C)nn4c3C2c2ccc(C3CC3)cc2F)CC1 (stereo not shown) [Example 1.6.18, (5-(4-cyclopropyl-2-fluorophenyl)-2-methyl-7,8-dihydro-[1,3,4]thiadiazolo[2′,3′:2,3]imidazo[4,5-c]pyridin-6(5H)-yl)(1-((2-ethyl-6-methylpyridin-3-yl)oxy)cyclopropyl)methanone]	6.73	–
Cc1nn2c3c(nc2s1)CCN(C(=O)COc1cc(F)cnc1Cl)C3c1ncc(C2CC2)cc1F (stereo not shown) [Example 1.14.7, 2-((2-chloro-5-fluoropyridin-3-yl)oxy)-1-(5-(5-cyclopropyl-3-fluoropyridin-2-yl)-2-methyl-7,8-dihydro-[1,3,4]thiadiazolo [2′,3′:2,3]imidazo[4,5-c]pyridin-6(5H)-yl)ethanone]	7.60	–
O=C(COc1ccc2ccncc2c1)N1CCc2nc3sccn3c2C1c1nc2ccccc2s1 (stereo not shown) [Example 6.12.9, 1-(5-(benzo[d]thiazol-2-yl)-7,8-dihydrothiazolo-[2′,3′:2,3]imidazo[4,5-c]pyridin-6(5H)-yl)-2-(isoquinolin-7-yloxy)ethanone]	7.92	–
Cc1nn2c3c(nc2s1)CCN(C(=O)COc1ccc(C(N)=O)cc1Cl)C3c1ccc(Cl)cc1F (stereo not shown) [Example 1.4.26, 3-Chloro-4-(2-(5-(4-chloro-2-fluorophenyl)-2-methyl-7,8-dihydro-[1,3,4]thiadiazolo[2′,3′:2,3]imidazo[4,5-c]pyridin-6(5H)-yl)-2-oxoethoxy)benzamide]	–	pIC50 [2]: 8.00
COC(=O)CCS(=O)(=O)c1ccc(OCC(=O)N2CCc3nc4sc(C)nn4c3C2c2ccc(Cl)cc2F)c(Cl)n1 (stereo not shown) [Example 1.4.11, Methyl 3-((6-chloro-5-(2-(5-(4-chloro-2-fluorophenyl)-2-methyl-7,8-dihydro-[1,3,4]thiadiazolo[2′,3′:2,3]imidazo[4,5-c]pyridin-6(5H)-yl)-2-oxoethoxy)pyridin-2-yl)sulfonyl)propanoate]	–	pIC50 [2]: 7.24
Cc1nn2c3c(nc2s1)CCN(C(=O)COc1ccc(N2CCOCC2)nc1Cl)C3c1csc(C2OCCO2)c1 (stereo not shown) [Example 1.85.1, 1-(5-(5-(1,3-dioxolan-2-yl)thiophen-3-yl)-2-methyl-7,8-dihydro-[1,3,4]thiadiazolo[2′,3′:2,3]imidazo[4,5-c]pyridin-6(5H)-yl)-2-((2-chloro-6-morpholinopyridin-3-yl)oxy)ethan-1-one]	7.89	–
COC(=O)c1cnc(C2c3c(nc4sc(C)nn34)CCN2C(=O)COc2ccc(N3CCOCC3)nc2Cl)s1 (stereo not shown) [Example 1.28.1, Methyl 2-(6-(2-((2-chloro-6-morpholinopyridin-3-yl)oxy)acetyl)-2-methyl-5,6,7,8-tetrahydro-[1,3,4]thiadiazolo [2′,3′:2,3]imidazo[4,5-c]pyridin-5-yl)thiazole-5-carboxylate]	8.15	–
Cc1nn2c3c(nc2s1)CCN(C(=O)COc1ccc(NS(=O)(=O)C2CC2)cc1Cl)C3c1ccc(Cl)cc1F (stereo not shown) [Example 1.4.30, N-(3-Chloro-4-(2-(5-(4-chloro-2-fluorophenyl)-2-methyl-7,8-dihydro-[1,3,4]thiadiazolo[2′,3′:2,3]imidazo[4,5-c]pyridin-6(5H)-yl)-2-oxoethoxy)phenyl)cyclo-propanesulfonamide]	–	pIC50 [2]: 8.00
Cc1noc(C)c1C1c2c(nc3sccn23)CCN1C(=O)COc1ccc(C(F)(F)F)cc1Cl (stereo not shown) [Example 6.5.3, 2-(2-chloro-4-(trifluoromethyl)phenoxy)-1-(5-(3,5-di-methylisoxazol-4-yl)-7,8-dihydrothiazolo[2′,3′:2,3]-imidazo[4,5-c]pyridin-6(5H)-yl)ethanone]	7.07	–
CNC(=O)c1ccc(OCC(=O)N2CCc3nc4sc(C)nn4c3C2c2ncc(C(=O)N(C)C)s2)c(Cl)n1 (stereo not shown) [Example 1.37.1, 2-(6-(2-((2-Chloro-6-(methylcarbamoyl)pyridin-3-yl)oxy)acetyl)-2-methyl-5,6,7,8-tetra-hydro-[1,3,4]thiadiazolo[2′,3′:2,3]imidazo[4,5-c]pyridin-5-yl)-N,N-dimethylthiazole-5-carboxamide]	–	pIC50 [2]: 6.75
Cc1nc(C)c(C2c3c(nc4sc(C)nn34)CCN2C(=O)COc2ccc(N3CCCS3(=O)=O)nc2Cl)s1 (stereo not shown) [Example 1.68.5, 2-((2-chloro-6-(1,1-dioxidoisothiazolidin-2-yl)pyridin-3-yl)oxy)-1-(5-(2,4-dimethylthiazol-5-yl)-2-methyl-7,8-dihydro-[1,3,4]thiadiazolo[2′,3′:2,3]imidazo[4,5-c]pyridin-6(5H)-yl)ethanone]	8.30	–
Cc1nn2c3c(nc2s1)CCN(C(=O)COc1ccc(C(=O)N(C)C2CC2)nc1Cl)C3c1ccc(C2CC2)cc1F (stereo not shown) [Example 1.6.28, 6-chloro-N-cyclopropyl-5-(2-(5-(4-cyclopropyl-2-fluoro-phenyl)-2-methyl-7,8-dihydro-[1,3,4]thiadiazolo-[2′,3′:2,3]imidazo[4,5-c]pyridin-6(5H)-yl)-2-oxoethoxy)-N-methylpicolinamide]	7.74	–
O=C(COc1ccc(Cl)cc1Cl)N1CCc2nc3sccn3c2C1c1nc2ccccc2s1 (stereo not shown) [Example 6.12.3, 1-(5-(benzo[d]thiazol-2-yl)-7,8-dihydrothiazolo-[2′,3′:2,3]imidazo[4,5-c]pyridin-6(5H)-yl)-2-(2,4-dichlorophenoxy)ethanone]	7.70	–
Cc1nn2c3c(nc2s1)CCN(C(=O)COc1ccc(NS(C)(=O)=O)nc1Cl)C3c1ncc(C2CC2)cc1F (stereo not shown) [Example 1.14.13, N-(6-chloro-5-(2-(5-(5-cyclopropyl-3-fluoropyridin-2-yl)-2-methyl-7,8-dihydro-[1,3,4]thiadiazolo[2′,3′:2,3]imidazo[4,5-c]pyridin-6(5H)-yl)-2-oxoethoxy)pyridin-2-yl)methanesulfonamide]	8.15	–
CCc1nn2c3c(nc2s1)CCN(C(=O)COc1ccc(C#N)cc1Cl)C3c1ccc(Cl)cc1F (stereo not shown) [Example 3.1.2, 3-chloro-4-(2-(5-(4-chloro-2-fluorophenyl)-2-ethyl-7,8-dihydro-[1,3,4]thiadiazolo[2′,3′:2,3]imidazo[4,5-c]pyridin-6(5H)-yl)-2-oxoethoxy)benzonitrile]	7.82	–
Cc1nn2c3c(nc2s1)CCN(C(=O)COc1c(F)cc(N2CCOCC2)nc1Cl)C3c1ncc(C2CC2)cc1F (stereo not shown) [Example 1.14.12, 2-((2-chloro-4-fluoro-6-morpholinopyridin-3-yl)oxy)-1-(5-(5-cyclopropyl-3-fluoropyridin-2-yl)-2-methyl-7,8-dihydro-[1,3,4]thiadiazolo[2′,3′:2,3]imidazo[4,5-c]pyridin-6(5H)-yl)ethanone]	7.39	–
COc1ccc(C2c3c(nc4sc(C)nn34)CCN2C(=O)COc2ccc(NS(C)(=O)=O)nc2Cl)c(F)c1 (stereo not shown) [Example 1.3.4, N-(6-chloro-5-(2-(5-(2-fluoro-4-methoxyphenyl)-2-methyl-7,8-dihydro-[1,3,4]thiadiazolo[2′,3′:2,3]imidazo[4,5-c]pyridin-6(5H)-yl)-2-oxoethoxy)pyridin-2-yl)methanesulfonamide]	8.10	–
